# Data from PubChem BioAssay AID1996.
# Conditions: buffer; pH 7.4; 200.0 µM
row,Structure (SMILES),solubility kinetic
1,CC(CCc1ccc(O)cc1)NCc1ccc(Cl)cc1Cl (configuration not stated),> 0.0486 mg/mL
2,C/C(Nc1ccccc1C(F)(F)F)=C1/CCOC1=O,0.0187 mg/mL
3,CSc1nc(-c2ccccc2)c(C#N)c(=O)[nH]1,> 0.0365 mg/mL
4,COc1ccc(C(=O)c2ccc(-c3ccc(OC)cc3)nc2)cc1,< 0.0007 mg/mL
5,Cc1cc(S(=O)(=O)Nc2noc3ccccc23)ccc1F,0.0412 mg/mL
6,CC1=C(C(=O)O)N2C(=O)C(NC(=O)c3ccccc3Cl)C2SC1 (configuration not stated),> 0.0529 mg/mL
7,O=C(CSc1nccc(=O)[nH]1)Nc1ccc2ccccc2c1,> 0.0467 mg/mL
8,COc1ccc(CCC(C)N2CCOCC2)cc1 (configuration not stated),0.0319 mg/mL
9,O=C(/C=C/Nc1ccc(S(=O)(=O)Nc2ncccn2)cc1)c1ccc2ccccc2c1,0.002 mg/mL
10,CCOC(=O)c1[nH]cnc1C(=O)Nc1cccc(OC)c1,0.0044 mg/mL
11,O=C(N[C@H]1CC1c1ccccc1)c1ccc([N+](=O)[O-])cc1 (some centres not stated),0.0016 mg/mL
12,CNC(=S)Nc1ccc(OCc2ccccc2)cc1,0.0295 mg/mL
13,c1ccc(Nc2nc(-c3ccccc3)ns2)cc1,< 0.0002 mg/mL
14,O=C(CC(Nc1ccc(Cl)cc1Cl)C(=O)O)c1ccccc1 (configuration not stated),0.05 mg/mL
15,O=C(CC(=O)NCCc1ccccc1)NCCc1ccccc1,> 0.0466 mg/mL
16,Cc1occc1C(=O)O/N=C(\N)c1ccccc1,0.0361 mg/mL
17,COc1ccc(/C=C/C(=O)OCC(=O)NC2CC2)c(OC)c1,> 0.0458 mg/mL
18,Cc1ccc(C)c(C(=O)COC(=O)c2c(-c3ccccc3)noc2C)c1,0.0044 mg/mL
19,COc1ccc(C(C)(C)C)cc1NC(=O)C1CCCO1 (configuration not stated),0.0415 mg/mL
20,CCC(=O)Nc1cccc(C(=O)OC)c1,0.0294 mg/mL
21,O=C(CN1CCN(Cc2cccc(F)c2)CC1)NCc1ccccc1,0.0431 mg/mL
22,COC(=O)C(Cc1ccc(O)cc1)NC(=O)c1ccc2c(c1)OCCO2 (configuration not stated),> 0.0536 mg/mL

row,Structure (SMILES),solubility kinetic
1,O=C(Cn1ccccc1=O)NCc1ccc(F)cc1,0.0241 mg/mL
2,CCCCCCn1c(N2CCCC2)nc2c1c(=O)n(C)c(=O)n2C,0.0486 mg/mL
3,CC(C)CN(C(=O)CSc1nc(N)cc(N)n1)C1CCS(=O)(=O)C1 (configuration not stated),> 0.056 mg/mL
4,O=C(c1cc(-c2cccc(Cl)c2)on1)N1CCCC1,0.0075 mg/mL
5,Cc1ccc(C(=O)NC2CCN(C(=O)Nc3ccccc3)CC2)cc1,0.0044 mg/mL
6,C[N+](C)(C)Cc1ccccc1.[Cl-],> 0.0279 mg/mL
7,COc1cccc(C(=O)Nc2c(F)cccc2F)c1,> 0.0395 mg/mL
8,Cl.c1ccc(OCC2CCNCC2)nc1,0.0337 mg/mL
9,COc1c(C=O)cc2c3c1CCCN3CCC2,0.0297 mg/mL
10,CN1CCN(C(=S)Nc2ccc(S(N)(=O)=O)cc2)CC1,> 0.0472 mg/mL
11,COc1ccc(C(C)NC(=O)Nc2ccc(C(C)=O)cc2)cc1OC (configuration not stated),0.047 mg/mL
12,CC(C)(C)OC(=O)N1CCCN(C(=O)Nc2cccc(Cl)c2)CC1,0.0514 mg/mL
13,CCOC(=O)c1nc2ccccc2c(=O)[nH]1,> 0.0327 mg/mL
14,Cc1ccccc1NC(=S)NC(=O)Cc1ccc(Cl)cc1,0.0005 mg/mL
15,Cc1nonc1NC(=O)CSc1nc2ccccc2o1,0.0424 mg/mL
16,COc1ccc2cc(C(C)C(=O)NC3CCC(O)CC3)ccc2c1 (configuration not stated),0.0253 mg/mL
17,Cc1ccc(C)c(NC(=O)NC2CCCCCCC2)c1,< 0.0003 mg/mL
18,Cc1ccc(/C=C/C(=O)OCC(=O)NCc2cccs2)o1,0.0218 mg/mL
19,O=[N+]([O-])c1cc(CN2CCCCCC2)ccc1O,0.0333 mg/mL
20,Cc1cc(NC(=O)CSc2nc3cc(C)c(C)cc3cc2C)no1,< 0.0002 mg/mL
21,N#CCc1ccc(OC(=O)c2cccnc2Cl)cc1,> 0.0409 mg/mL
22,O=C(CN1CCOCC1)Nc1ccc(F)cc1,> 0.0357 mg/mL

row,Structure (SMILES),solubility kinetic
1,Cc1ccc(C(C)C)c(OCCOCCN2CCNCC2)c1.O=C(O)C(=O)O,0.0521 mg/mL
2,COCCCNC(=S)Nc1ccc(C)cc1[N+](=O)[O-],0.0401 mg/mL
3,O=C(O)C1CCCNC1 (configuration not stated),0.0004 mg/mL
4,CCCCC(CC)C(=O)Nc1ncc([N+](=O)[O-])s1 (configuration not stated),> 0.0407 mg/mL
5,Cc1cccn2c(=O)c(C=O)c(Cl)nc12,> 0.0334 mg/mL
6,CC(C)CC(N=Cc1c(O)c2ccccc2oc1=O)C(=O)O (configuration not stated),> 0.0455 mg/mL
7,CN(C(=O)c1ccc(NC(=O)c2ccco2)cc1)c1ccccc1,0.0029 mg/mL
8,CN(CC1COc2ccccc2O1)C(=O)c1ccc(N(C)C)cc1 (configuration not stated),> 0.049 mg/mL
9,CCCC(=O)NC(c1ccccc1)c1c(O)ccc2ccccc12 (configuration not stated),< 0.0007 mg/mL
10,COc1cc2ccccc2cc1C(=O)Nc1ccc(C)cc1,0.0023 mg/mL
11,Cc1cccc(-n2c(O)c(C=NCCN3CCNCC3)c(=O)[nH]c2=S)c1,0.0512 mg/mL
12,Cc1cc(C(=O)O)ccc1NCc1ccncc1,> 0.0363 mg/mL
13,Cc1ccc(-n2c(C)nc3ccccc3c2=O)c(C)c1,> 0.0396 mg/mL
14,O=C(NC1CCCCC1)c1cc(-c2ccccc2O)on1,0.0006 mg/mL
15,CCOc1ccc(NC(=O)CN(C)C(=O)c2ccncc2)cc1OCC,> 0.0536 mg/mL
16,Cc1ccc(C(=O)C[n+]2ccccc2C)cc1[N+](=O)[O-].[Br-],0.0483 mg/mL
17,COc1ccc(NC(=O)CCN2C(=O)c3ccccc3C2=O)cc1,0.0231 mg/mL
18,Cc1cc(C)c(C)c(S(=O)(=O)NCCCn2ccnc2)c1C,0.0398 mg/mL
19,NC(=O)COc1ccc(NS(=O)(=O)Cc2ccccc2)cc1,0.0461 mg/mL
20,Cc1cc(C)c(C)c(S(=O)(=O)Nc2cccnc2)c1C,0.0036 mg/mL
21,CCN(CC)C(=O)c1cc(-c2ccc3c(c2)OCO3)on1,0.0208 mg/mL
22,CCOc1ccc2oc(C(=O)Nc3ccc4c(c3)OCO4)c(C)c2c1,0.0057 mg/mL

row,Structure (SMILES),solubility kinetic
1,CC(C)(C)c1ccc(OCc2cnc(Cl)s2)cc1,< 0.0006 mg/mL
2,CC(C)CC(NC(=O)OC(C)(C)C)C(=O)O.O (configuration not stated),> 0.0374 mg/mL
3,Cc1noc(C(=O)Nc2cc(Cl)ccc2O)c1Cl,0.0017 mg/mL
4,CC(=C1C(=O)c2ccccc2C1=O)N1CCN(c2ccc(F)cc2)CC1,> 0.0526 mg/mL
5,O=C(NCC(=O)N1CCOCC1)c1ccc(Cl)c(Cl)c1,> 0.0476 mg/mL
6,CC(=O)N1N=C(c2ccccc2)OC1c1cccnc1 (configuration not stated),> 0.0401 mg/mL
7,CC(Cc1ccccc1)C(=O)Nc1ccc(Br)cc1 (configuration not stated),0.0032 mg/mL
8,COc1ccc(C(=O)N2CCN(CC(=O)N3CCOCC3)CC2)cc1,0.0406 mg/mL
9,COc1ccc(OC)c(NC(=S)N2c3ccccc3CC2C)c1 (configuration not stated),0.0076 mg/mL
10,CC1CCN(C(=O)CNC(=O)c2ccc(Br)o2)CC1,> 0.0494 mg/mL
11,CCCNC(=S)N1CCC(C(=O)c2ccc3c(c2)OCCO3)CC1,0.0413 mg/mL
12,COc1ccc(S(=O)(=O)Nc2cc(S(=O)(=O)N3CCOCC3)ccc2OC)cc1,0.0373 mg/mL
13,O=c1c2[nH]c3ccc(F)cc3c2ncn1CC1CCCO1 (configuration not stated),0.0039 mg/mL
14,COc1cccc(C(=O)OCC(=O)NCCC2=CCCCC2)c1,0.0258 mg/mL
15,Cc1cccc(NC(=O)C2CCN(C(=O)c3ccco3)CC2)c1C,> 0.049 mg/mL
16,N#Cc1ccccc1OCC(=O)Nc1ccc(S(=O)(=O)N2CCOCC2)cc1,0.0069 mg/mL
17,CC(=O)C1=C(C)NC2=C(C(=O)c3ccccc32)C1c1ccccc1 (configuration not stated),0.0008 mg/mL
18,O=C(COC(=O)/C=C/c1ccc(Cl)cc1Cl)NCC1CCCO1 (configuration not stated),0.0104 mg/mL
19,Cc1csc(NC(=O)c2c(-c3ccccc3)noc2C)n1,0.0374 mg/mL
20,COc1ccc(C(=O)N[C@H](C(=O)NCc2ccccc2)C(C)C)cc1,0.0052 mg/mL
21,COc1cc(/C=C/C(=O)OCC(=O)NCCCc2ccccc2)cc(OC)c1OC,0.0278 mg/mL
